Measured values taken from ChEMBL document CHEMBL1240511, “Design, synthesis, and in vitro pharmacology of new radiolabeled gamma-hydroxybutyric acid analogues including photolabile analogues with irreversible binding to the high-affinity gamma-hydroxybutyric acid binding sites” (J Med Chem, 2010).
Active and inactive are the calls of the source. The calls are words filed in the database; no cut-off is given here.

What was measured:
[1] = Displacement of [3H]NCS-382 from GABAB receptor gamma-hydroxybutyric acid binding site in rat cerebral cortex synaptic membranes after 1 hr by liquid scintillation counting; assay type: cell membranes, Membrane
Rattus norvegicus = organism: Rattus norvegicus; assay: Binding affinity to GABAB receptor gamma-hydroxybutyric acid binding site in UV irradiated rat cerebral cortex synaptic membranes assessed as covalent binding at 100 nM after 1 hr by gamma-hydroxybutyric acid displacement assay; assay type: tissue-based; conditions: tested as the 125I-labelled form

| SMILES | Ki [1] [nM] | Activity (Rattus norvegicus) |
| --- | --- | --- |
| [N-]=[N+]=Nc1ccc(COc2ccc(C(O)CCC(=O)O)cc2)cc1I (centres undefined) | 186 | – |
| [N-]=[N+]=Nc1ccc(I)cc1COc1ccc(C(O)CCC(=O)O)cc1 (centres undefined) | 120 | Active |
| O=C(O)CCC(O)c1ccc(OCc2cccc(I)c2)cc1 (centres undefined) | 75 | – |
